Experimental data reported in ChEMBL document CHEMBL1201862, “PubChem BioAssay data set” (2004).
Active and inactive are the calls of the source.

What was measured:
[1] = test system: HEK293; assay: NOD1 signaling inhibitors, primary screen, cell-based, luminescence, uHTS (AID 1578); format: functional; details: Homo sapiens
[2] = test system: HEK293; assay: cells; format: functional, cell-based; details: Homo sapiens
[3] = test system: HEK293; assay: cells; format: functional, cell-based; details: Homo sapiens; remark: listed apart in the source
[4] = target: Nucleotide-binding oligomerization domain-containing protein 2 (Homo sapiens, UniProt Q9HC29); assay: NOD2 signaling inhibitors, cell-based, luminescence, uHTS, HEK293 (AID 1566); format: functional
Sequence of Nucleotide-binding oligomerization domain-containing protein 2 (Q9HC29 whole entry, the tested form may be a part): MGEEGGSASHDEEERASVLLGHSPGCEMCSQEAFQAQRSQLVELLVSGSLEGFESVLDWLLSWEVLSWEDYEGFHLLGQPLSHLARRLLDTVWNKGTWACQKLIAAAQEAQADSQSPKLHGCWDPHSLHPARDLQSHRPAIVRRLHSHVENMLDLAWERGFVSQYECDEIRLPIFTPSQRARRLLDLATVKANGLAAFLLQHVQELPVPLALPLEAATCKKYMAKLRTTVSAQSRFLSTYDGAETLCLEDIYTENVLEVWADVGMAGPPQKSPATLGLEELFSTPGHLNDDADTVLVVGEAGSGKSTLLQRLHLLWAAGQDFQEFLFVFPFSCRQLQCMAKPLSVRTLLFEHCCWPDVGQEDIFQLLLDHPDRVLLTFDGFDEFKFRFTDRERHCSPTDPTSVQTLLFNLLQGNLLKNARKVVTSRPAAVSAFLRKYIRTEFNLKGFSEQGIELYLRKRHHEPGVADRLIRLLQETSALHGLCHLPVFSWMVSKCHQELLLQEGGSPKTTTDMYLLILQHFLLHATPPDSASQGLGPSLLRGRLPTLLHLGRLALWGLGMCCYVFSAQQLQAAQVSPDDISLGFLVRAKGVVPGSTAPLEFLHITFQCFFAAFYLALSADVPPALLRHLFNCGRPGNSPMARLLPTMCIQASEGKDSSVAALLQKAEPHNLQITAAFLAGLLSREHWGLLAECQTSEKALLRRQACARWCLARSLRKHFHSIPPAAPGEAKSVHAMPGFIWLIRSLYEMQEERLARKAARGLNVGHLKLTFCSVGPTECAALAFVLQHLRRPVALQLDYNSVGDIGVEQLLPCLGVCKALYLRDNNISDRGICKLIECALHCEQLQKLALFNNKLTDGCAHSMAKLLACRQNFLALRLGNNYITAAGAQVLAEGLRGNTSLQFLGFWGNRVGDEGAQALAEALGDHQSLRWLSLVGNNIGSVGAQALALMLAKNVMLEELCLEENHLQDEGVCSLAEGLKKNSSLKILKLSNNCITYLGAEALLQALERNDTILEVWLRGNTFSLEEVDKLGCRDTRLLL

[5] = test system: HEK293; assay: NOD2 signaling inhibitors in MDP-stimulated cells, cell-based, uHTS, luminescence (AID 2001); format: functional; details: Homo sapiens
[6] = inhibitors of intracellular T. cruzi replication, confirmation, NIH3T3 host cells, beta-gal luminescence (AID 2044); format: functional, cell-based;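 further: intracellular parasites grown in NIH/3T3 mouse fibroblasts as host cells; luminescent beta-galactosidase reporter signal from transgenic T. cruzi replicating inside host cells; inhibitors lower the luminescence signal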
[7] = test system: HEK293; assay: cells; format: functional, cell-based; details: Homo sapiens; remark: listed apart in the source
[8] = cytotoxicity toward NIH3T3 fibroblasts, dose response, counter-screen, cell-based, ATP luminescence, mouse fibroblasts (AID 2010); format: functional;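 further: cells exposed to compound for about 90 hours before reading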
[9] = target: T1, CAAX prenyl protease 2 (Saccharomyces cerevisiae S288c, UniProt Q03530); format: biochemical
T1 sequence (Q03530 whole entry): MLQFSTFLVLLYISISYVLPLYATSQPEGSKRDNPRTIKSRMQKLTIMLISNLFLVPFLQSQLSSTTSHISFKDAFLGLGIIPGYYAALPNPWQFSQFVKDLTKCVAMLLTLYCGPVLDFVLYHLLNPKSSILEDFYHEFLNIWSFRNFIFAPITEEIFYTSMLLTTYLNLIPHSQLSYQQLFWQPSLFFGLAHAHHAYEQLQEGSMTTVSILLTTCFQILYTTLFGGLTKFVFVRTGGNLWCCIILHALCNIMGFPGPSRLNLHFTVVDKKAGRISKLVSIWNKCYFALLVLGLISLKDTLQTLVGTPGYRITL

[10] = test system: INS1; assay: beta cell apoptosis inhibitors, cytokine rescue, dose response, luminescence, retest (AID 449756); format: functional, cell-based; details: Rattus norvegicus;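 further: cell death triggered by IL-1 beta plus TNF-alpha plus IFN-gamma mixture; protective hits raise ATP signal compared with cytokine alone wells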
[11] = Shn3 3'UTR reporter inhibitors, dose response, cell-based, Clone20 osteoblasts, firefly luciferase, cherry-picked (AID 624132); format: functional;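 further: firefly luciferase luminescence from reporter carrying the Shn3 3'UTR in osteoblasts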
[12] = target: T2, Corticotropin-releasing factor receptor 2/Corticotropin-releasing factor-binding protein (Homo sapiens, UniProt P24387+Q13324); assay: activators of CRF receptor 2 with binding protein – uHTS hits, confirmation (AID 602473); format: functional; details: read-out: EC50_Mean
T2 sequence (Q13324 whole entry): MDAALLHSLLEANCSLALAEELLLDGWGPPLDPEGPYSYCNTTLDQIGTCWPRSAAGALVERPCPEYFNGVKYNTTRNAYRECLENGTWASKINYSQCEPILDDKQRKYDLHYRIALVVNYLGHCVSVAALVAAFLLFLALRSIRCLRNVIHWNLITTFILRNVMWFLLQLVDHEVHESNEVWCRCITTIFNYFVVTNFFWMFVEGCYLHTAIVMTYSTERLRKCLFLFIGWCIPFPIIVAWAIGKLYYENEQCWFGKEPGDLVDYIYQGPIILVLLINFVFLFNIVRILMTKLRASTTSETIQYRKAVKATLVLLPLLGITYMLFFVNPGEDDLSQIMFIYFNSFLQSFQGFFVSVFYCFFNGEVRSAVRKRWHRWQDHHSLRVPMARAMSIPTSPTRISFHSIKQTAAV
T2 sequence (P24387 whole entry): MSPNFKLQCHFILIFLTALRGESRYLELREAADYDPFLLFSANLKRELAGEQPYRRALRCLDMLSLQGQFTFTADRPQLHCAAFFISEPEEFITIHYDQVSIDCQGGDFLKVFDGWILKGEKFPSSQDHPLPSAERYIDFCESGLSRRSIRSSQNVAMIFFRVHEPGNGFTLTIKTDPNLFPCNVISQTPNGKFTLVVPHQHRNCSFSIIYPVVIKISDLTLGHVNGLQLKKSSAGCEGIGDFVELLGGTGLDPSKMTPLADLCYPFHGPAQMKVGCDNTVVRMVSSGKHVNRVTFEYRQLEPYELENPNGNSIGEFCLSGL

[13] = target: Protein Wnt-3a (Mus musculus, UniProt P27467); assay: Wnt3a-driven reporter signaling inhibition, dose response, selectivity assay for Gli-SUFU antagonist project, Wnt-LIGHT cells, luminescence (AID 651570); format: functional; details: read-out: IC50_Mean;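 further: Wnt-LIGHT reporter cells stimulated with conditioned medium from Wnt3a-producing cells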
Sequence of Protein Wnt-3a (P27467 whole entry): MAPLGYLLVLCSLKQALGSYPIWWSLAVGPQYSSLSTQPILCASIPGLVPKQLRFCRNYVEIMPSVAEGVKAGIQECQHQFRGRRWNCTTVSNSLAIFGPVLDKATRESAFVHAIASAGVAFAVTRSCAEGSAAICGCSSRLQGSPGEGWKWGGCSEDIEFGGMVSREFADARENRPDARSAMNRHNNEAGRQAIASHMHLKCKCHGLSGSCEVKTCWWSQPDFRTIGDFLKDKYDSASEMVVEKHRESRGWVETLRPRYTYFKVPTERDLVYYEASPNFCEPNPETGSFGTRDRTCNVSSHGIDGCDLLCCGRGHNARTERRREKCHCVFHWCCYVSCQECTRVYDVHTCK

[14] = reduction of endogenous Shn3 mRNA, dose response, qPCR, Clone20 cells, cherry-pick (AID 743415); format: functional, cell-based
[15] = reduction of Shn3 3'UTR firefly luciferase signal, dose response, Schnurri-3 inhibitor project, cell-based, Clone20 osteoblasts, cherry-pick, set 2 (AID 720490); format: functional;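 further: actives lower the luminescence signal as inhibitors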
[16] = target: FAD-linked sulfhydryl oxidase ALR (Homo sapiens, UniProt P55789); assay: inhibitors of human ALR sulfhydryl oxidase, dose response, biochemical, H2O2 detection, luminescence, cherry-pick (AID 493248)
Sequence of FAD-linked sulfhydryl oxidase ALR (P55789 whole entry): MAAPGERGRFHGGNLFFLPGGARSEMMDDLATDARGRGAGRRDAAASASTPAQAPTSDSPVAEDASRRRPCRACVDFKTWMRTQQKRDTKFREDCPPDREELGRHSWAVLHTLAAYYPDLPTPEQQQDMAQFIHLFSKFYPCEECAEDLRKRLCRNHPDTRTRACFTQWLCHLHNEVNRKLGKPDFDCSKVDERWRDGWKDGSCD

[17] = target: T3, Methionyl-tRNA synthetase, putative (Trypanosoma brucei brucei, UniProt Q38C91); format: functional, Trypanosoma brucei brucei strain 927/4 GUTat10.1
T3 sequence (Q38C91 whole entry): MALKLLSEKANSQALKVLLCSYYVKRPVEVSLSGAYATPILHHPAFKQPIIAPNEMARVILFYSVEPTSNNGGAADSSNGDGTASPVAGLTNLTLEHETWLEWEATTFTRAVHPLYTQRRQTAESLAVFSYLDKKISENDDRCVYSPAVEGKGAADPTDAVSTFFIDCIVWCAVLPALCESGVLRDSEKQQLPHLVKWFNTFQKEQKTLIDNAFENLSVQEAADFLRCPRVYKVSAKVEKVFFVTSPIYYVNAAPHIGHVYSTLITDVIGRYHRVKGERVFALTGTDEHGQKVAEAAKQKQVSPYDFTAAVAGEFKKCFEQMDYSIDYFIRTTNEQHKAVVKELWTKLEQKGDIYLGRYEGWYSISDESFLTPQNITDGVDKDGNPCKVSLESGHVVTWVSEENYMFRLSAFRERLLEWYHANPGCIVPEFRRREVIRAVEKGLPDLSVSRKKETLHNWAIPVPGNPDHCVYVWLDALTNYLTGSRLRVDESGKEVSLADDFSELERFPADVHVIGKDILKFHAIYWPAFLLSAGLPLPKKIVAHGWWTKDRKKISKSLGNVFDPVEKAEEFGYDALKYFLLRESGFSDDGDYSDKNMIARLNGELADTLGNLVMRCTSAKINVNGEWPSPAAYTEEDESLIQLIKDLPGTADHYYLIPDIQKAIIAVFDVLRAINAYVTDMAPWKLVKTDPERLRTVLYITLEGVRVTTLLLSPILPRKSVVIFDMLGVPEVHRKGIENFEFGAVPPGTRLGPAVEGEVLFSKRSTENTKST

[18] = Counterscreen for inhibitors of Trypanosoma brucei methionyl tRNA synthetase (MetRS): Luminescence-based cell-based high throughput dose response assay to identify compounds that are cytotoxic to Jurkat human T lymphocyte cells.; format: functional
[19] = target: T3, Methionyl-tRNA synthetase, putative; format: functional, Trypanosoma brucei brucei strain 927/4 GUTat10.1; remark: listed apart in the source
[20] = Late stage counterscreen for inhibitors of Trypanosoma brucei methionyl tRNA synthetase (MetRS): Luminescence-based cell-based high throughput dose response assay to identify compounds that are cytotoxic to Jurkat human T lymphocyte cells.; format: functional
[21] = target: Endoplasmic reticulum aminopeptidase 1 (Homo sapiens, UniProt Q9NZ08); assay: ERAP1 aminopeptidase inhibitors, dose response, biochemical, cherry-pick, set 2, plate reader (AID 743314)
Sequence of Endoplasmic reticulum aminopeptidase 1 (Q9NZ08 whole entry, the tested form may be a part): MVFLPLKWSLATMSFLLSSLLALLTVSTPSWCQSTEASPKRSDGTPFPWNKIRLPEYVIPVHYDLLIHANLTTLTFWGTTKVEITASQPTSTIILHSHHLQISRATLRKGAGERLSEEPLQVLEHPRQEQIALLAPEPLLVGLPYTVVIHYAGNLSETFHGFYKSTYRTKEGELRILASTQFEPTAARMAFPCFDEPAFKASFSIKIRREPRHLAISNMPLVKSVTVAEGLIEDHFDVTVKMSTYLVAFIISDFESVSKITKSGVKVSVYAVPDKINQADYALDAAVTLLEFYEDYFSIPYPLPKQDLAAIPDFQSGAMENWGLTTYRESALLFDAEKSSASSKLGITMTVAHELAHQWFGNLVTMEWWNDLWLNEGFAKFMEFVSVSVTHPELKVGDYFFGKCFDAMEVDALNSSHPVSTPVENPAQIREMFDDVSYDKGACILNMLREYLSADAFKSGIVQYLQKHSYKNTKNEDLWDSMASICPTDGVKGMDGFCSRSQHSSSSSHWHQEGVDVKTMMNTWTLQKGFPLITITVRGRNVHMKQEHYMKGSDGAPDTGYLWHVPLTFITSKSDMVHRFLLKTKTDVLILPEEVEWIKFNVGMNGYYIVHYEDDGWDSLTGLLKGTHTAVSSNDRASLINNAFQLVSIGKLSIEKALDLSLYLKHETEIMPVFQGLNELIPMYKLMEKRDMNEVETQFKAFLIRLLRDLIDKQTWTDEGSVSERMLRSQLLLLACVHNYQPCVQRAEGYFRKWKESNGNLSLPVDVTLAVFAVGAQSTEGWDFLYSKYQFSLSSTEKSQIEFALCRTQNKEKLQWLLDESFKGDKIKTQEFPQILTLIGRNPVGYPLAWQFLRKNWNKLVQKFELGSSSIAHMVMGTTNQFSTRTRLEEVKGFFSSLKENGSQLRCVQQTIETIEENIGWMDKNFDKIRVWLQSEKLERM

[22] = target: T4, Oxysterols receptor LXR-beta (Homo sapiens, UniProt P55055); format: functional, cell-based;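 further: Cell-based luminescence dose-response assay of agonist activity at LXR, run as a confirmatory counterscreen to a daf-12 agonist screen; HEK293 cells with Gal4-LXR fusion and GAL4-driven luciferase reporter; agonist potency from rising luciferase signal of a Gal4-LXR reporter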
T4 sequence (P55055 whole entry): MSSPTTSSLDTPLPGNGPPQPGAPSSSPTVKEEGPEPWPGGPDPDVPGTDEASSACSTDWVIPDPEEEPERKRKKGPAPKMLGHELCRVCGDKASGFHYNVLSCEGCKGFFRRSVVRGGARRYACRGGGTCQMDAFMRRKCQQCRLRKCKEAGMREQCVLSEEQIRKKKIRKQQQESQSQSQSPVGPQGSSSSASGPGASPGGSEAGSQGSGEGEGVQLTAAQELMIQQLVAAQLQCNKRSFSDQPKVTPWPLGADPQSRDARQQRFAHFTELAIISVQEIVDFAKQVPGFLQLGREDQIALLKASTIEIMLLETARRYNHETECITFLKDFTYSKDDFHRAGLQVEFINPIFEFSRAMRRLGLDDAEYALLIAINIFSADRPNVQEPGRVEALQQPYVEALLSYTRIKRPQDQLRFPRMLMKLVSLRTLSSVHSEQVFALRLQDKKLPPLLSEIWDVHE

[23] = cells

Compound: COc1ccccc1N1CCN(c2ncc(C(=O)N3CCN(c4cccc(Cl)c4)CC3)c3ccccc23)CC1
- EC50 [1]: 4.31 µM (active)
- IC50 [2]: 5.68 µM (active)
- IC50 [3]: > 20 µM (inactive)
- EC50 [4]: 9.31 µM (active)
- IC50 [5]: 4.46 µM (active)
- EC50 [6]: 2.29 µM (active)
- IC50 [7]: > 20 µM (inactive)
- EC50 [8]: > 30 µM (not active)
- AC50 [9]: 9.46 µM (active)
- AC50 [10]: 3.93 µM (active)
- AC50 [11]: 0.572 µM (active)
- EC50 [12]: > 53 µM (inactive)
- IC50 [13]: 1.47 µM (active)
- AC50 [14]: 30 µM (active)
- AC50 [15]: 1.81 µM (active)

Compound: Oc1c(Cl)cc(Cl)cc1CNc1nc2ccccc2[nH]1
- AC50 [16]: 0.587 µM (active)
- IC50 [17]: 0.488 µM (active)
- IC50 [18]: 83.3 µM (inactive)
- IC50 [19]: 0.661 µM (active)
- IC50 [20]: > 83.3 µM (inactive)

Compound: CCc1cc(=O)oc2c(CN3CCN(C)CC3)c(O)ccc12
- AC50 [21]: 7.3 µM (active)

Compound: NC(=S)N/N=C/c1ccc(-c2ccc(Cl)c(Cl)c2)o1
- EC50 [6]: 0.983 µM (active)
- EC50 [8]: > 60 µM (not active)
- EC50 [22]: > 67.5 µM (inactive)
- EC50 [23]: > 67.5 µM (inactive)
